Test results reported in patent US20070149400A1, “6-(2-Chloro-4-alkoxyphenyl)triazolopyrimidines, their preparation and their use for controlling harmful fungi, and compositions comprising these compounds” (priority 2003, published 2007).

Tested on: Alternaria solani
Assay: Activity against early blight of tomato caused by Alternaria solani (protective spray, potted plants)
Format: in vivo
Conditions: 63 ppm active compound, tomato cultivar Goldene Prinzessin, infected next day, assessed after 5 days; untreated plants 90% infected
Procedure: The active compounds were prepared as a stock solution comprising 0.25% by weight of active compound in acetone or DMSO. 1% by weight of the emulsifier Uniperol® EL (wetting agent having emulsifying and dispersing action based on ethoxylated alkylphenols) was added to this solution, and the mixture was diluted with water to the desired concentration. Leaves of potted plants of the cultivar “Goldene Prinzessin” were sprayed to run off point with an aqueous suspension having the concentration of active compounds stated below. The next day, the leaves were infected with an aqueous […] suspension of Alternaria solani in 2% biomalt solution having a density of 0.17×10^6 spores/ml. The plants were then placed in a water-vapor-saturated chamber at temperatures of between 20 and 22° C. After 5 days, the disease on the leaves of the untreated, but infected control plants had developed to such an extent that the infection could be determined visually in %.

CCC(C)Nc1c(-c2ccc(OC)cc2Cl)c(Cl)nc2ncnn12 (racemic) [Compound I-3, 5-chloro-6-(2-chloro4-methoxyphenyl)-7-but-2-ylamino-[1,2,4]-triazolo[1,5-a]pyrimidine]
infection of the leaves, determined visually in %: no infection
